Laboratory results: PubChem BioAssay (NCI)
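48-hour exposure; five concentrations; linearly interpolated endpoints. GI50: concentration for 50% inhibition of growth. The concentration for full growth arrest is given as TGI.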

How the values were obtained:
Assay in all cases: NCI anticancer screen, dose series, 48 h
[1] = tested on: 786-0 renal
[2] = tested on: A498 renal
[3] = tested on: A549 NSCLC
[4] = tested on: ACHN renal
[5] = tested on: BT-549 breast
[6] = tested on: CAKI-1 renal
[7] = tested on: CCRF-CEM leukemia
[8] = tested on: COLO 205 colon
[9] = tested on: DU-145 prostate
[10] = tested on: EKVX NSCLC
[11] = tested on: HCC-2998 colon
[12] = tested on: HCT-116 colon
[13] = tested on: HCT-15 colon
[14] = tested on: HL-60(TB) leukemia
[15] = tested on: HOP-62 NSCLC
[16] = tested on: HOP-92 NSCLC
[17] = tested on: HS 578T breast
[18] = tested on: HT29 colon
[19] = tested on: IGROV1 ovarian
[20] = tested on: K-562 leukemia
[21] = tested on: KM12 colon
[22] = tested on: LOX IMVI melanoma
[23] = tested on: M14 melanoma
[24] = tested on: MALME-3M melanoma
[25] = tested on: MCF7 breast
[26] = tested on: MDA-MB-231 breast
[27] = tested on: MDA-MB-435
[28] = tested on: MDA-MB-468 breast
[29] = tested on: MOLT-4 leukemia
[30] = tested on: NCI-H226 lung
[31] = tested on: NCI-H23 lung
[32] = tested on: NCI-H460 lung
[33] = tested on: NCI-H522 lung
[34] = tested on: OVCAR-3 ovarian
[35] = tested on: OVCAR-4 ovarian
[36] = tested on: OVCAR-5 ovarian
[37] = tested on: OVCAR-8 ovarian
[38] = tested on: PC-3 prostate
[39] = tested on: RPMI-8226 leukemia
[40] = tested on: RXF 393 renal
[41] = tested on: SF-268 CNS
[42] = tested on: SF-295 CNS
[43] = tested on: SF-539 CNS
[44] = tested on: SK-MEL-28 melanoma
[45] = tested on: SK-MEL-5 melanoma
[46] = tested on: SK-OV-3 ovarian
[47] = tested on: SN12C renal
[48] = tested on: SNB-19 CNS
[49] = tested on: SNB-75 CNS
[50] = tested on: SR leukemia
[51] = tested on: SW-620 colon
[52] = tested on: T-47D breast
[53] = tested on: TK-10 renal
[54] = tested on: U251 CNS
[55] = tested on: UACC-257 melanoma
[56] = tested on: UACC-62 melanoma
[57] = tested on: UO-31 renal
[58] = tested on: SK-MEL-2 melanoma

For `Cc1ccc(NC(=O)[C@]23CCC(C)(C)CC2C2=CCC4[C@@]5(C)C[C@@H](O)[C@H](O)[C@@](C)(CO)C5CC[C@@]4(C)[C@]2(C)CC3)cc1` (stereo not given in full), the GI50 [1] was 12.8 µM, the TGI [1] was 26.4 µM and the GI50 [2] was 14.1 µM. For the same compound, the TGI [2] was 27.4 µM, the GI50 [3] was 12.9 µM and the TGI [3] was > 100 µM. It also gave a GI50 [4] of 10.4 µM, a TGI [4] of 22.1 µM and a GI50 [5] of 12.4 µM. For the same compound, the TGI [5] was 25.4 µM, the GI50 [6] was 5.1 µM and the TGI [6] was 20.4 µM. The GI50 [7] was 11.1 µM, the TGI [7] was 38.9 µM and the GI50 [8] was 12.1 µM. For the same compound, the TGI [8] was 27.5 µM, the GI50 [9] was 15.2 µM and the TGI [9] was 32.6 µM. For the same compound, the GI50 [10] was 9.25 µM, the TGI [10] was 23.9 µM and the GI50 [11] was 6.91 µM. It also gave a TGI [11] of 21 µM, a GI50 [12] of 7.24 µM and a TGI [12] of 20 µM. It also gave a GI50 [13] of 6.9 µM, a TGI [13] of 19.9 µM and a GI50 [14] of 5.44 µM. The TGI [14] was 36.5 µM, the GI50 [15] was 14.3 µM and the TGI [15] was 29.1 µM. It also gave a GI50 [16] of 8.43 µM, a TGI [16] of 23.1 µM and a GI50 [17] of 12.4 µM. It also gave a TGI [17] of 48.6 µM, a GI50 [18] of 7.44 µM and a TGI [18] of 20.1 µM. It also gave a GI50 [19] of 11.1 µM, a TGI [19] of 23.8 µM and a GI50 [20] of 12.1 µM. The TGI [20] was 87.6 µM, the GI50 [21] was 12.8 µM and the TGI [21] was 28.2 µM. The GI50 [22] was 5.27 µM, the TGI [22] was 19.1 µM and the GI50 [23] was 12.4 µM. The TGI [23] was 25.2 µM, the GI50 [24] was 12.1 µM and the TGI [24] was 25.1 µM. For the same compound, the GI50 [25] was 4.12 µM, the TGI [25] was 15.5 µM and the GI50 [26] was 12.2 µM. For the same compound, the TGI [26] was 26.1 µM, the GI50 [27] was 11.5 µM and the TGI [27] was 23.7 µM. It also gave a GI50 [28] of 4.52 µM, a TGI [28] of 18.1 µM and a GI50 [29] of 6.88 µM. It also gave a TGI [29] of 50.7 µM, a GI50 [30] of 11 µM and a TGI [30] of 23.8 µM. For the same compound, the GI50 [31] was 12.7 µM, the TGI [31] was 26.8 µM and the GI50 [32] was 10.5 µM. It also gave a TGI [32] of 23.1 µM, a GI50 [33] of 12.9 µM and a TGI [33] of 26.6 µM. It also gave a GI50 [34] of 13.5 µM, a TGI [34] of 27.3 µM and a GI50 [35] of 7.81 µM. It also gave a TGI [35] of 23.3 µM, a GI50 [36] of 12.8 µM and a TGI [36] of 25.7 µM. For the same compound, the GI50 [37] was 14.2 µM, the TGI [37] was 35.5 µM and the GI50 [38] was 5.46 µM. It also gave a TGI [38] of 21.5 µM, a GI50 [39] of 4.79 µM and a TGI [39] of 25.8 µM. For the same compound, the GI50 [40] was 2.9 µM, the TGI [40] was 11.6 µM and the GI50 [41] was 10.2 µM. For the same compound, the TGI [41] was 32.2 µM, the GI50 [42] was 8.28 µM and the TGI [42] was 21.4 µM. The GI50 [43] was 12.7 µM, the TGI [43] was 25.6 µM and the GI50 [44] was 13 µM. For the same compound, the TGI [44] was 26 µM, the GI50 [45] was 6.45 µM and the TGI [45] was 19.3 µM. For the same compound, the GI50 [46] was 13.9 µM, the TGI [46] was 34 µM and the GI50 [47] was 10.9 µM. For the same compound, the TGI [47] was 23.1 µM, the GI50 [48] was 16.5 µM and the TGI [48] was 43.4 µM. It also gave a GI50 [49] of 1.88 µM, a TGI [49] of 31.4 µM and a GI50 [50] of 5.58 µM. The TGI [50] was > 100 µM, the GI50 [51] was 12.5 µM and the TGI [51] was 27.5 µM. The GI50 [52] was 6.94 µM, the TGI [52] was 20.6 µM and the GI50 [53] was 16.3 µM. The TGI [53] was 32 µM, the GI50 [54] was 12.8 µM and the TGI [54] was 25.5 µM. For the same compound, the GI50 [55] was 12.9 µM, the TGI [55] was 27.5 µM and the GI50 [56] was 6.8 µM. For the same compound, the TGI [56] was 20.6 µM, the GI50 [57] was 3.54 µM and the TGI [57] was 17 µM.
`O=C(O)c1ccc(-c2ccc(/C=N/NC(=O)c3[nH]c4ccc(Br)cc4c3-c3ccccc3)o2)cc1` was tested, and the GI50 [1] was 24.2 µM, the TGI [1] was > 100 µM and the GI50 [2] was 23.6 µM. For the same compound, the TGI [2] was 85.7 µM, the GI50 [3] was 32.3 µM and the TGI [3] was > 100 µM. The GI50 [4] was 29.3 µM, the TGI [4] was > 100 µM and the GI50 [5] was 20.1 µM. For the same compound, the TGI [5] was 51.7 µM, the GI50 [6] was 22 µM and the TGI [6] was 98.7 µM. The GI50 [7] was 19.3 µM, the TGI [7] was > 100 µM and the GI50 [8] was 26.4 µM. For the same compound, the TGI [8] was 83.8 µM, the GI50 [9] was 36.4 µM and the TGI [9] was > 100 µM. For the same compound, the GI50 [10] was 28.8 µM, the TGI [10] was > 100 µM and the GI50 [11] was 16.1 µM. The TGI [11] was 30.7 µM, the GI50 [12] was 27.7 µM and the TGI [12] was > 100 µM. For the same compound, the GI50 [13] was 18.6 µM, the TGI [13] was > 100 µM and the GI50 [14] was 12.4 µM. The TGI [14] was 36.1 µM, the GI50 [15] was 29.5 µM and the TGI [15] was > 100 µM. It also gave a GI50 [16] of 10.6 µM, a TGI [16] of 42.2 µM and a GI50 [17] of 3.87 µM. The TGI [17] was 72 µM, the GI50 [18] was 21.9 µM and the TGI [18] was 54.7 µM. It also gave a GI50 [19] of 25.3 µM, a TGI [19] of 86.1 µM and a GI50 [20] of 20.8 µM. For the same compound, the TGI [20] was 98.4 µM, the GI50 [21] was 22.4 µM and the TGI [21] was 66.2 µM. For the same compound, the GI50 [22] was 20 µM, the TGI [22] was > 100 µM and the GI50 [23] was 29.8 µM. The TGI [23] was > 100 µM, the GI50 [24] was 19.1 µM and the TGI [24] was > 100 µM. The GI50 [25] was 28.3 µM, the TGI [25] was > 100 µM and the GI50 [26] was 27.9 µM. For the same compound, the TGI [26] was > 100 µM, the GI50 [27] was 12.5 µM and the TGI [27] was 41.1 µM. The GI50 [28] was 19.5 µM, the TGI [28] was 79.6 µM and the GI50 [29] was 20.3 µM. The TGI [29] was 96.6 µM, the GI50 [30] was 34.5 µM and the TGI [30] was > 100 µM. The GI50 [31] was 34.1 µM, the TGI [31] was > 100 µM and the GI50 [32] was 21.3 µM. For the same compound, the TGI [32] was 72.8 µM, the GI50 [33] was 7.64 µM and the TGI [33] was 34.4 µM. The GI50 [34] was 12.2 µM, the TGI [34] was 43.1 µM and the GI50 [35] was 21.1 µM. For the same compound, the TGI [35] was > 100 µM, the GI50 [36] was 36.5 µM and the TGI [36] was > 100 µM. It also gave a GI50 [37] of 20.7 µM, a TGI [37] of 63.4 µM and a GI50 [38] of 25.1 µM. The TGI [38] was > 100 µM, the GI50 [39] was 25.9 µM and the TGI [39] was > 100 µM. The GI50 [40] was 11.3 µM, the TGI [40] was 95.1 µM and the GI50 [41] was 20.8 µM. For the same compound, the TGI [41] was > 100 µM, the GI50 [42] was 20.4 µM and the TGI [42] was 55.8 µM. It also gave a GI50 [43] of 14.7 µM, a TGI [43] of 36.7 µM and a GI50 [58] of 14.6 µM. The TGI [58] was 37.3 µM, the GI50 [44] was 15.8 µM and the TGI [44] was > 100 µM. The GI50 [45] was 15.7 µM, the TGI [45] was 33 µM and the GI50 [46] was 28.3 µM. The TGI [46] was 76.7 µM, the GI50 [47] was 24.8 µM and the TGI [47] was 80.8 µM. The GI50 [48] was 21.6 µM, the TGI [48] was > 100 µM and the GI50 [49] was 4.02 µM. For the same compound, the TGI [49] was 33.3 µM, the GI50 [50] was 11.8 µM and the TGI [50] was 45.6 µM. The GI50 [51] was 25.4 µM, the TGI [51] was > 100 µM and the GI50 [52] was 30.9 µM. The TGI [52] was > 100 µM, the GI50 [53] was 38.7 µM and the TGI [53] was > 100 µM. For the same compound, the GI50 [54] was 20 µM, the TGI [54] was 83.1 µM and the GI50 [55] was 24.5 µM. For the same compound, the TGI [55] was > 100 µM, the GI50 [56] was 4.98 µM and the TGI [56] was 25.2 µM. The GI50 [57] was 25 µM and the TGI [57] was > 100 µM.
